Results published in patent publication US5206382A, “Indole derivatives, pharmaceutical compositions and methods of treating neurological and psychiatric disorders” (Fidia Georgetown Institute for the Neurosciences, priority 1991, dated 1993).

How the values were obtained:
[1] = target: T1, MBR (mitochondrial benzodiazepine recognition site) (Rattus norvegicus, UniProt P16257); experiment: Displacement of ^3 H-RO5-4864 from mitochondrial BZD recognition site (MBR); format: binding, Sprague Dawley rat; settings: displacement of 1 nM ^3 H-RO5-4864, rat mitochondria; range in parentheses
T1 construct: Brain and adrenal glands were removed and homogenized with Polytron; from tissue; host or cells: mitochondrial fraction of Sprague Dawley rat brain and adrenal glands
Method: (§1) Mitochondrial Preparation: Sprague Dawley rats (200-250 gr.) were killed by decapitation. Brain and adrenal glands were removed and homogenized with Polytron for 15 minutes in ice cold buffer (10 mM Na/KPO4, 0.32M sucrose, pH 7.4). The homogenate was centrifuged for 15 minutes at 6,500 xg at 4° C. The resulting supernatant was centrifuged for 15 minutes at […] at 4° C. The pellet was suspended in buffer (20 times) by gentle homogenization and centrifuged at 10,000 xg at 4° C. for 15 minutes. The washed mitochondrial pellet was stored at -70° C.
(§2) For the binding assay the mitochondrial fraction was diluted with 50 mM Na/KPO4 buffer (pH 7.4) to give a final protein concentration of […] in 100 μl buffer. This suspension was incubated with 1 nM of ^3 H PK-11195 or ^3 H RO 5-4864 (50 μl) with or without 10/μM unlabeled PK-11195 or RO 5-4864 to assess the extent of total and non-specific binding. Different amounts of indole derivatives were added to the incubation medium in a volume of 50 μl. After incubation for 60 minutes at 4° C., samples were filtered and the radioactivity was measured in a scintillation counter.

[2] = target: T2, ^3 H-ZOLPIDEM binding (crude synaptic membrane) (Rattus norvegicus, UniProt P18508+P62813); experiment: ^3 H-ZOLPIDEM binding, crude synaptic membranes; parameters: species or system Sprague Dawley rat; settings: 2 nM ^3 H-ZOLPIDEM, rat cerebellum membranes
T2 construct: from tissue; host or cells: crude synaptic membranes of Sprague Dawley rat cerebellum
Method: (§3) Crude Synaptic Membrane Preparation: Sprague Dawley rats (200-250 gr.) were killed by decapitation. The cerebella were removed and incubated for 20 minutes in ice cold double distilled water after homogenization with Polytron. The homogenate was centrifuged at 18,000 xg at 4° C. for 10 minutes. The pellet was suspended in ice-cold buffer 50 mM Na/KPO4(pH 7.4) and centrifuged at 18,000 xg at 4° C. for 10 minutes. After two other centrifugations, the membranes were suspended in 5 ml of buffer and the proteins were measured.
(§4) The membranes were diluted with 50 mM Na/KPO4 buffer (pH 7.4) to a concentration of 150 μg of protein/ml, and 150 μl aliquots of the suspension were incubated with 50 μl of the different ligands to be tested: ^3 H-ZOLPIDEM(2 nM), ^3 H-FLUMAZENIL (2 nM), ^3 H-GABA(10 nM), ^3 H-MK 801(5 nM), ^3 H-KETANSERIN(1 nM), ^3 H-GLYCINE(20 nM), ^3 H-SPIPERONE(1 nM), ^3 H-AMPA(10 nM), ^3 H-3-PPP(1 nM), and ^3 H-NALOXONE(1 nM). Non-specific binding was assessed by displacing with 10 to 1000/μM of cold ligand. The different indole derivatives were added in a volume of 50 μl in a concentration varying from 10^-9 to 10^-3 M. The results are reported in Table I hereinbelow.

[3] = target: T1, MBR (mitochondrial benzodiazepine recognition site); experiment: Displacement of ^3 H-PK11195 from mitochondrial BZD recognition site (MBR); format: binding, Sprague Dawley rat; settings: for IC50: displacement of 1 nM ^3 H-PK11195, rat mitochondria, range in parentheses; for ^3 H-PK11195 / ^3 H-RO5-4864: ratio of the two IC50 values
Method: as §1, §2

[4] = target: T3, BZD binding site located on the GABAA receptor (Rattus norvegicus, UniProt P18508+P62813); experiment: ^3 H-FLUMAZENIL binding, crude synaptic membranes; parameters: species or system Sprague Dawley rat; settings: 2 nM ^3 H-FLUMAZENIL, rat cerebellum membranes
T3 construct: The cerebella were removed and incubated for 20 minutes in ice cold double distilled water; from tissue; host or cells: crude synaptic membranes of Sprague Dawley rat cerebellum
Method: as §3
The membranes were diluted with 50 mM Na/KPO4 buffer (pH 7.4) to a concentration of 150 μg of protein/ml, and 150 μl aliquots of the suspension were incubated with 50 μl of the different ligands to be tested: ^3 H-ZOLPIDEM(2 nM), ^3 H-FLUMAZENIL (2 nM), ^3 H-GABA(10 nM), ^3 H-MK 801(5 nM), ^3 H-KETANSERIN(1 nM), ^3 H-GLYCINE(20 nM), ^3 H-SPIPERONE(1 nM), ^3 H-AMPA(10 nM), ^3 H-3-PPP(1 nM), and ^3 H-NALOXONE(1 nM). Non-specific binding was assessed by displacing with 10 to 1000/μM of cold ligand.

[5] = test system: mitochondrial pregnenolone formation, C6-2B glioma cells; experiment: Pregnenolone formation in glial mitochondria (C6-2B glioma cells); format: biochemical; settings: for Effective concentration, maximal / EC50: C6 glial cell mitochondria, 15 minutes at 37° C.; for EC50: read-out: Effective concentration, 50%; for Stimulation %: pregnenolone formation, increase over the control
Method: The mixture was preincubated for 5 minutes at 37° C. The incubation mixture was extracted with 5 ml chloroform/methanol (2:1, vol/vol), and the organic phase was evaporated to dryness. Pregnenolone was measured by a specific radioimmunoassay using an antibody obtained from Radioassay Systems Laboratories, Carson, Calif.

Sprague Dawley rats = experiment: Elevated X maze test; format: in vivo, Sprague Dawley rat; settings: for Entries in open arms, test after 10 min injection / Entries in open arms, test after 20 min injection / Entries in open arms, test after 30 min injection: 20 mg/kg i.v., rats; for behavioral output of rats in the elevated X maze test: in words
Method: The elevated X maze is a behavioral test to detect anxiolytic drugs in rodents. […] The plus-maze consists of two open arms (43×8 cm) and two similarly sized enclosed arms with 9 cm high walls, arranged so that the arms of the same type are opposite each other. There is a central square of 8 cm. The apparatus is elevated to a height of 10 cm and each arm is divided into 3 squares.
Sprague Dawley rats weighing 200-250 gr. were housed in a room with a 12 hour light: 12 hour dark cycle and were allowed free access to food and water. After an i.v. injection of different indole derivatives, the rats were kept separated for 10, 20 or 30 minutes before testing. The testing period commenced when each animal was placed onto the central square of the maze. The number of entries in each arm was then recorded for 5 minutes. The maze was cleaned with water after each trial. The number of entries in the open arms provided a measure of anxiolytic activity of the drugs.

[6] = target: ^3 H-GABA binding (crude synaptic membrane); experiment: ^3 H-GABA binding, crude synaptic membranes; parameters: species or system Sprague Dawley rat; settings: 10 nM ^3 H-GABA, rat cerebellum membranes
Method: as §3, §4

T3 sequence (P62813 28-455): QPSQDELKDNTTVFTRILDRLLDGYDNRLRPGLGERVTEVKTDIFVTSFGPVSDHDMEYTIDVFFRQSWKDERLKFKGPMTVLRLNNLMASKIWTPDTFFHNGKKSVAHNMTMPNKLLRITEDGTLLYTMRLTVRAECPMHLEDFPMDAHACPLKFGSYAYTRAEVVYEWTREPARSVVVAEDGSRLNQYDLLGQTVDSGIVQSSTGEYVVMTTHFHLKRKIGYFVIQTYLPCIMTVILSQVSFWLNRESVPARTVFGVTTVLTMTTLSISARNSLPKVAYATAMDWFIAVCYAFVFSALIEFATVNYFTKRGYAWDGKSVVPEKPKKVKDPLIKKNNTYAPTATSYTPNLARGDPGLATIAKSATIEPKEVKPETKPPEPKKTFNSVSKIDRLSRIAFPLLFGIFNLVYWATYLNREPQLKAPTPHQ
T3 sequence (P18508 39-466): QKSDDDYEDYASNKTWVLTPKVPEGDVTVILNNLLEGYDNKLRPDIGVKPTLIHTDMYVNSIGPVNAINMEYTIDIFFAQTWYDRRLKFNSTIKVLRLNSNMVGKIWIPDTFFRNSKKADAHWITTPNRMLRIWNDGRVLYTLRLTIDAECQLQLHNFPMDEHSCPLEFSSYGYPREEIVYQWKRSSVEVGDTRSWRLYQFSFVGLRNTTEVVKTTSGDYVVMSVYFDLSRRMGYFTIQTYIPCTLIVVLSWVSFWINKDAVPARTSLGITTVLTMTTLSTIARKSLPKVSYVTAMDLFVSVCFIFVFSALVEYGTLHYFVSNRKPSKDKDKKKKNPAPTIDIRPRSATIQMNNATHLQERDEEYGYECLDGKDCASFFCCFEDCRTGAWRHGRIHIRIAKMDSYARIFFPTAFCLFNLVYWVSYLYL
T2 sequence (P62813 28-455): as the sequence (P62813 28-455) above
T2 sequence (P18508 39-466): as the sequence (P18508 39-466) above

## O=C(Cc1c(-c2ccccc2)[nH]c2ccccc12)N1CCCCC1 [Compound No. 3]
[1]
  IC50: 59 nM
[2]
  IC50: > 1000 nM
[3]
  IC50: 84 nM
  ^3 H-PK11195 / ^3 H-RO5-4864: 1.4

## CCCN(CCC)C(=O)Cc1c(-c2ccc(Cl)cc2)[nH]c2ccc(Cl)cc12 [Compound No. 6]
[1]
  IC50: 40 nM
[2]
  IC50: > 1000 nM
[3]
  IC50: 45 nM
  ^3 H-PK11195 / ^3 H-RO5-4864: 1.1
[4]
  IC50: > 1000 nM

## CN(C)C(=O)Cc1c(-c2ccccc2)[nH]c2ccccc12 [Compound No. 7]
[1]
  IC50: 600 nM
[2]
  IC50: > 1000 nM
[3]; Tables I and II compared
  binding to MBR in words: relatively high affinity
[3]
  IC50: 600 nM
  ^3 H-PK11195 / ^3 H-RO5-4864: 1
[4]
  IC50: > 1000 nM
[5]
  Effective concentration, maximal: 10^-7 M
  EC50: 10 nM
  Stimulation %: 131%
[5]; in words
  intrinsic efficacy (pregnenolone formation): low intrinsic efficacy

## CCCN(CCC)C(=O)Cc1c(-c2ccc(C)cc2)[nH]c2ccc(C)cc12 [Compound No. 8]
[1]
  IC50: 41.5 nM
[2]
  IC50: > 1000 nM
[3]
  IC50: 68.5 nM
  ^3 H-PK11195 / ^3 H-RO5-4864: 1.6
[5]
  Effective concentration, maximal: 10^-7 M
  EC50: 33 nM
  Stimulation %: 220%

## Cc1ccc(-c2[nH]c3ccc(C)cc3c2CC(=O)N(C)C)cc1 [Compound No. 9]
[1]
  IC50: 255 nM
[2]
  IC50: > 1000 nM
[3]
  IC50: > 1000 nM
  ^3 H-PK11195 / ^3 H-RO5-4864: > 3
[5]
  Effective concentration, maximal: > 10^-6 M
  Stimulation %: none

## CCCN(CCC)C(=O)Cc1c(-c2cccs2)[nH]c2ccccc12 [Compound No. 10]
[1]
  IC50: 14.5 nM
[2]
  IC50: > 1000 nM
[3]
  IC50: 24 nM
  ^3 H-PK11195 / ^3 H-RO5-4864: 1.6
[4]
  IC50: > 1000 nM

## c1ccc(-c2[nH]c3ccccc3c2CC2=NCCN2)cc1 [Compound No. 15]
[1]
  IC50: > 1000 nM
[3]
  IC50: > 1000 nM
[4]
  IC50: > 1000 nM

## CCCN(CCC)C(=O)Cc1c2n(c3ccccc13)Cc1ccccc1-2 [Compound No. 16]
[1]
  IC50: 40 nM
[3]
  IC50: 30 nM
  ^3 H-PK11195 / ^3 H-RO5-4864: 0.75
[4]
  IC50: > 1000 nM

## CCCN(CCC)C(=O)CCc1c(-c2ccc(Cl)cc2)[nH]c2ccc(Cl)cc12 [compound 11]
[1]
  IC50: 120 nM
[2]
  IC50: > 1000 nM
[3]
  IC50: 180 nM
  ^3 H-PK11195 / ^3 H-RO5-4864: 1.5
[4]
  IC50: > 1000 nM

## CCCN(CCC)C(=O)Cc1c(-c2cccs2)[nH]c2ccc(Cl)cc12 [compound 17]
[1]
  IC50: 37.5 nM
[3]
  IC50: 50 nM
  ^3 H-PK11195 / ^3 H-RO5-4864: 1.3
[4]
  IC50: > 1000 nM

## CCCN(CCC)C(=O)Cc1c(-c2ccc(Br)cc2)[nH]c2ccccc12 [compound 18]
[1]
  IC50: 36 nM
[3]
  IC50: 75 nM
  ^3 H-PK11195 / ^3 H-RO5-4864: 2
[4]
  IC50: > 1000 nM
Sprague Dawley rats
  Entries in open arms, test after 10 min injection: 2
  behavioral output of rats in the elevated X maze test: increase the behavioral output

## CCCN(CCC)C(=O)C(C)c1c(-c2ccc(Cl)cc2)[nH]c2ccccc12 (centres unmarked) [compound 19]
[1]
  IC50: > 1000 nM
[3]
  IC50: > 1000 nM
[4]
  IC50: > 1000 nM
Sprague Dawley rats
  Entries in open arms, test after 10 min injection: 1
  behavioral output of rats in the elevated X maze test: increase the behavioral output

## CCCN(CCC)C(=O)Cc1c(-c2cccc(Cl)c2)[nH]c2ccccc12 [compound 21]
[1]
  IC50: 80 nM
[3]
  IC50: 100 nM
  ^3 H-PK11195 / ^3 H-RO5-4864: 1.2
[4]
  IC50: > 1000 nM
Sprague Dawley rats
  Entries in open arms, test after 10 min injection: 2
  Entries in open arms, test after 20 min injection: 4
  Entries in open arms, test after 30 min injection: 0
  behavioral output of rats in the elevated X maze test: increase the behavioral output
[6]
  IC50: > 1000 nM

## CCCN(CCC)C(=O)Cc1c(-c2ccc(Cl)cc2)n(C)c2ccccc12 [compound 22]
[1]
  IC50: 200 nM
[3]
  IC50: 200 nM
  ^3 H-PK11195 / ^3 H-RO5-4864: 1
[4]
  IC50: > 1000 nM
Sprague Dawley rats
  Entries in open arms, test after 10 min injection: 3
  Entries in open arms, test after 20 min injection: 2
  Entries in open arms, test after 30 min injection: 6
  behavioral output of rats in the elevated X maze test: increase the behavioral output
[5]
  Effective concentration, maximal: 10^-8 M
  Stimulation %: 170%

## CCCN(CCC)C(=O)C=Cc1c(-c2ccc(Cl)cc2)[nH]c2ccccc12 [compound 24]
[1]
  IC50: 600 nM
[2]
  IC50: > 1000 nM
[3]
  IC50: 700 nM
  ^3 H-PK11195 / ^3 H-RO5-4864: 1.1
[4]
  IC50: > 1000 nM
Sprague Dawley rats
  Entries in open arms, test after 10 min injection: 3
  Entries in open arms, test after 20 min injection: 2
  Entries in open arms, test after 30 min injection: 3
  behavioral output of rats in the elevated X maze test: increase the behavioral output
